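Results reflect a 48-hour exposure of cells in 96-well plates to compound at five concentrations. The concentration for 50% growth inhibition is given as GI50. TGI is the concentration that stops growth completely.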
Tests used:
Test in all cases: inhibition of tumour cell growth, NCI panel, 48 h
[1] = tested on: SF-295 CNS
[2] = tested on: 786-0 renal
[3] = tested on: RXF 393 renal
[4] = tested on: CAKI-1 renal
[5] = tested on: SR leukemia
[6] = tested on: MOLT-4 leukemia
[7] = tested on: CCRF-CEM leukemia
[8] = tested on: U251 CNS
[9] = tested on: IGROV1 ovarian
[10] = tested on: NCI/ADR-RES ovarian
[11] = tested on: MCF7 breast

CC(=O)c1cc(S(=O)(=O)c2ccc(O)c(C(C)=O)c2)ccc1O
TGI [1]: > 100 µM | TGI [2]: > 100 µM | TGI [3]: > 100 µM | TGI [4]: > 100 µM | TGI [5]: > 100 µM | TGI [6]: > 100 µM | TGI [7]: > 100 µM | TGI [8]: > 100 µM | TGI [9]: > 100 µM | TGI [10]: > 100 µM | TGI [11]: > 100 µM

CC(C)CCCC(C)[C@H]1CC[C@H]2NCCCC[C@]12C (some centres not stated)
TGI [1]: 5.2 µM | TGI [2]: 10.5 µM | TGI [3]: 4.62 µM | TGI [4]: 22.8 µM | TGI [5]: 6.23 µM | TGI [6]: 6.32 µM | TGI [7]: 4.16 µM | TGI [8]: 5.88 µM | TGI [9]: 19.8 µM | TGI [10]: 20.7 µM | TGI [11]: 4.37 µM

Cc1ccc(C2(N3CCOCC3)OC(C)(C)c3cccc4cccc2c34)cc1 (configuration not stated)
TGI [1]: 33.6 µM | TGI [2]: 32.4 µM | TGI [3]: 31.5 µM | TGI [4]: 50.1 µM | TGI [5]: > 100 µM | TGI [6]: > 100 µM | TGI [7]: 65.7 µM | TGI [8]: 30.7 µM | TGI [9]: 35.2 µM | TGI [10]: 31.2 µM | TGI [11]: 33.2 µM

CC1Cc2c(cc(N)nc2Br)NC1=O (configuration not stated)
TGI [1]: > 100 µM | TGI [2]: > 100 µM | TGI [3]: > 100 µM | TGI [4]: > 100 µM | TGI [5]: > 100 µM | TGI [6]: > 100 µM | TGI [7]: > 100 µM | TGI [8]: > 100 µM | TGI [9]: > 100 µM | TGI [10]: > 100 µM | TGI [11]: > 100 µM

O=c1cnc2cc3ccccc3cc2[nH]1
TGI [1]: > 100 µM | TGI [2]: > 100 µM | TGI [3]: > 100 µM | TGI [4]: > 100 µM | TGI [5]: > 100 µM | TGI [6]: > 100 µM | TGI [7]: > 100 µM | TGI [8]: > 100 µM | TGI [9]: > 100 µM | TGI [10]: > 100 µM | TGI [11]: > 100 µM

O=C1/C(=C(/Br)I)c2ccccc2-c2ccccc21
TGI [1]: 31.4 µM | TGI [2]: 10.2 µM | TGI [3]: 13.1 µM | TGI [4]: 16.9 µM | TGI [5]: > 30.5 µM | TGI [6]: 6.27 µM | TGI [7]: 5.93 µM | TGI [8]: 25.5 µM | TGI [9]: 27.7 µM | TGI [10]: 30.4 µM | TGI [11]: 32.9 µM

CC(=O)OCC1(CNc2nc(N)ncc2C#N)CC(CCc2ccccc2)C1 (configuration not stated)
TGI [1]: > 100 µM | TGI [2]: > 100 µM | TGI [3]: > 100 µM | TGI [4]: > 100 µM | TGI [5]: > 100 µM | TGI [6]: > 100 µM | TGI [7]: > 100 µM | TGI [8]: > 100 µM | TGI [9]: > 100 µM | TGI [10]: > 100 µM | TGI [11]: > 100 µM

COc1ccc(/C=N/N=C(\N)NO)c(OC)c1OC
TGI [1]: > 100 µM | TGI [2]: > 100 µM | TGI [3]: > 100 µM | TGI [4]: > 100 µM | TGI [5]: 74.5 µM | TGI [6]: > 100 µM | TGI [7]: 76.1 µM | TGI [8]: > 100 µM | TGI [9]: > 100 µM | TGI [10]: 35.4 µM | TGI [11]: > 100 µM

O=C1Sc2cc3ccccc3cc2C(=O)Sc2cc3ccccc3cc21
TGI [1]: > 100 µM | TGI [2]: 59 µM | TGI [3]: 35.7 µM | TGI [4]: > 90.1 µM | TGI [5]: 9.27 µM | TGI [6]: 76.8 µM | TGI [7]: 12.5 µM | TGI [8]: > 100 µM | TGI [9]: > 100 µM | TGI [10]: > 92.3 µM | TGI [11]: > 100 µM

O=C1/C(=C/c2cccs2)N=C(c2ccccc2)N1c1nc2ccccc2s1
TGI [1]: > 100 µM | TGI [2]: > 100 µM | TGI [3]: 90.7 µM | TGI [4]: > 100 µM | TGI [5]: > 100 µM | TGI [6]: > 100 µM | TGI [7]: 0.976 µM | TGI [8]: > 100 µM | TGI [9]: > 100 µM | TGI [10]: > 100 µM | TGI [11]: > 100 µM

O=c1[nH]nc(N/N=C\c2ccc(Cl)cc2)c2ccccc12
TGI [1]: 34 µM | TGI [2]: 30.6 µM | TGI [3]: 56.2 µM | TGI [4]: 34 µM | TGI [5]: 58.2 µM | TGI [6]: > 100 µM | TGI [7]: > 100 µM | TGI [8]: 38.2 µM | TGI [9]: 37.2 µM | TGI [10]: 39 µM | TGI [11]: 64 µM

CN1CCCC(OC(=O)c2cc3cc(CCl)ccc3oc2=O)C1 (configuration not stated)
TGI [1]: 77.9 µM | TGI [2]: 58.4 µM | TGI [3]: 54.6 µM | TGI [4]: 60.5 µM | TGI [5]: 70.1 µM | TGI [6]: 98 µM | TGI [7]: 55 µM | TGI [8]: 30.1 µM | TGI [9]: > 100 µM | TGI [10]: 87 µM | TGI [11]: 50.1 µM

C#Cc1cccc(Nc2ncnc3cc(OCCOC)c(OCCOC)cc23)c1
TGI [1]: 67.6 µM | TGI [2]: 48 µM | GI50 [3]: 3.97 µM | TGI [3]: 34.9 µM | TGI [4]: 10 µM | GI50 [5]: 9.98 µM | TGI [5]: > 100 µM | GI50 [6]: 24.2 µM | TGI [6]: > 100 µM | TGI [7]: > 100 µM | TGI [8]: 99 µM | TGI [9]: 16.9 µM | TGI [10]: > 100 µM | GI50 [11]: > 100 µM | TGI [11]: > 100 µM

CC(C)Oc1cc2c(cc1O)CC[C@@H]1[C@@H]2CC[C@]2(C)[C@@H](O)CC[C@@H]12
TGI [1]: 11.8 µM | TGI [2]: 36.1 µM | TGI [3]: 17.2 µM | TGI [4]: > 20 µM | TGI [5]: 27.8 µM | TGI [6]: 30.2 µM | TGI [7]: > 39.8 µM | TGI [8]: 24.4 µM | TGI [9]: 42.9 µM | TGI [10]: 19.9 µM | TGI [11]: 30.3 µM

CCn1c(SCc2nnc(Nc3ccccc3)s2)nc2ccccc2c1=O
TGI [1]: 6.87 µM | TGI [2]: 3.97 µM | TGI [3]: 19.1 µM | TGI [4]: 9.04 µM | TGI [5]: 61.4 µM | TGI [6]: > 100 µM | TGI [7]: > 85.7 µM | TGI [8]: 5.3 µM | TGI [9]: 15.7 µM | TGI [10]: 10.9 µM | TGI [11]: > 93.6 µM

COC(C[C@H]1CCCC[C@]1(O)/C(=C\CO[Si](C(C)C)(C(C)C)C(C)C)Sc1ccccc1)OC
TGI [1]: > 100 µM | TGI [2]: > 100 µM | TGI [3]: 55.3 µM | TGI [4]: > 100 µM | TGI [5]: 46.5 µM | TGI [6]: 38.8 µM | TGI [7]: > 100 µM | TGI [8]: 51.8 µM | TGI [9]: > 100 µM | TGI [10]: > 100 µM | TGI [11]: > 100 µM

COCCN(C(=O)c1ccccc1)C1CCC(=O)c2[nH]c3ccccc3c21 (configuration not stated)
TGI [1]: > 56.8 µM | TGI [2]: 11.9 µM | TGI [3]: 15.2 µM | TGI [4]: 10.9 µM | TGI [5]: > 24.8 µM | TGI [6]: 26.9 µM | TGI [7]: 26.8 µM | TGI [8]: 3.99 µM | TGI [9]: 13.6 µM | TGI [10]: 53.6 µM | TGI [11]: 19.2 µM

CN(c1ccc(Cl)cc1)S(=O)(=O)c1ccccc1
TGI [1]: > 100 µM | TGI [2]: > 100 µM | TGI [3]: 62.3 µM | TGI [4]: > 100 µM | TGI [5]: > 100 µM | TGI [6]: > 100 µM | TGI [7]: > 100 µM | TGI [8]: > 100 µM | TGI [9]: > 100 µM | TGI [10]: > 100 µM | TGI [11]: > 100 µM
